From patent publication US20230382949A1 (HEPTARES THERAPEUTICS LIMITED, priority 2020, published 2023)
Like-named read-outs stand apart in the source and are kept apart here. Starred links: 1 amine or outer side, 2 acyl side, 3 side chain; linkers in the order of their positions; H or OH if unused. Non-standard residues stand in square brackets, D forms with d. Residues, ends and D or L forms follow the SMILES beside them. *: point of attachment. Ala(piperidin-4-yl) = O=C([C@H](CC1CCN([*:3])CC1)N[*:1])[*:2]; Malonyl(2,2-Me2,histaminyl) = CC(C)(C(=O)NCCc1cnc[nH]1)C(=O)*; dBip = N[C@H](Cc1ccc(-c2ccccc2)cc1)C(=O)O; Oic = O=C(O)[C@@H]1C[C@@H]2CCCC[C@@H]2N1; Phe(4-Br) = N[C@@H](Cc1ccc(Br)cc1)C(=O)O; X4 = CC(C)(C(=O)NCCCc1cnc[nH]1)C(=O)*; hArg = N=C(N)NCCCC[C@H](N)C(=O)O; Pip = O=C(O)[C@@H]1CCCCN1; Nle = CCCC[C@H](N)C(=O)O; Aib = CC(C)(N)C(=O)O

Experiments:
human Apelin receptor [1] = molecular target: T1, human Apelin receptor (Homo sapiens, UniProt P35414); assay: β-arrestin accumulation assay, functional agonism of human Apelin receptors; assay type: cell-based
T1 construct: host or cells: CHO-K1 cells
Procedure, shortened: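 After 16 h at 37° C., cells were exposed to increasing agonist concentrations in serum-free medium for 90 min at 37° C. Detection reagent added for 60 min in the dark; receptor activation read by fluorescence and EC50 derived from concentration-response curves.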
T1 sequence (P32121 whole entry partner, one chain of several): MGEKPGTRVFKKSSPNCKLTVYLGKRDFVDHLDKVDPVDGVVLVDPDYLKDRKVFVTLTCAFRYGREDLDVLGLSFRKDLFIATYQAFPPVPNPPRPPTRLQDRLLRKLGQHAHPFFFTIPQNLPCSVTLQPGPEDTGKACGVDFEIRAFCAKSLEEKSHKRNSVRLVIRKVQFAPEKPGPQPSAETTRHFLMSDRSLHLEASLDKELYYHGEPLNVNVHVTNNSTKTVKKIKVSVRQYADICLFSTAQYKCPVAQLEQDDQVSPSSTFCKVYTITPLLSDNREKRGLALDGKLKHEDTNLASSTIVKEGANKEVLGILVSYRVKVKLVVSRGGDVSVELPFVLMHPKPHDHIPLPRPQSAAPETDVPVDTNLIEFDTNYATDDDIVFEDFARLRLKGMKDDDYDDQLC

human Apelin receptor [2] = molecular target: T2, human Apelin receptor (Homo sapiens, UniProt P35414); assay: cAMP accumulation assay (HTRF), functional agonism of human Apelin receptors; assay type: cell-based; conditions: for Emax: CHO
T2 sequence (P35414 1-380): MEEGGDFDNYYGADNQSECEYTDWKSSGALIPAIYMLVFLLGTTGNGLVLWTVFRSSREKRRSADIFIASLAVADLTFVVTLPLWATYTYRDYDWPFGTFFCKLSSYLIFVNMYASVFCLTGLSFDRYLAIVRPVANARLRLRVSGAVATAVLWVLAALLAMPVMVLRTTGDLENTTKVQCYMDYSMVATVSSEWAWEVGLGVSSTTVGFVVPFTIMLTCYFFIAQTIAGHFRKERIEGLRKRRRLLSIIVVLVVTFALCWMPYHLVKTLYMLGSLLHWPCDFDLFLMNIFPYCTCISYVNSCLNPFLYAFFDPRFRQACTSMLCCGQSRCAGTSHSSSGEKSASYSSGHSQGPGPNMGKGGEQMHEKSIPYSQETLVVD
From the text: cAMP functional assay. cAMP production was quantified using the Homogeneous Time-Resolved Fluorescence (HTRF) cAMP dynamic-2 assay (Cisbio, France).

Structure (SMILES)	EC50 (human Apelin receptor [1]) [nM]	Emax (human Apelin receptor [2]; Human Apelin agonist cAMP assay, CHO cells stably expressing the human Apelin receptor, 3 uM forskolin) [%]	EC50 (human Apelin receptor [2]; pEC50, Human Apelin agonist cAMP assay, CHO cells stably expressing the human Apelin receptor, 3 uM forskolin) [nM]	Emax (human Apelin receptor [2]; read-out: Emax) [%]	EC50 (human Apelin receptor [2]; read-out: pEC50 (converted)) [nM]
CC(C)C[C@H](NC(=O)[C@@H](CCCNC(=N)N)NC(=O)[C@@H]1CCCN1C(=O)[C@H](CCCCNC(=N)N)NC(=O)[C@H](CCC(N)=O)NC(=O)C(C)(C)C(=O)NCCCc1cnc[nH]1)C(=O)NC(C)(C)C(=O)N[C@@H](Cc1c[nH]cn1)C(=O)N[C@@H](CC1CCNCC1)C(=O)NCC(=O)N1[C@H](C(=O)N[C@@H](Cc2ccc(Br)cc2)C(=O)N2CCC[C@H]2C(=O)N[C@H](Cc2ccc(-c3ccccc3)cc2)C(=O)O)C[C@@H]2CCCC[C@@H]21 [Example 61] (X4-Q[hArg]P[dR]L[Aib]H[Ala(piperidin-4-yl)]G[Oic][Phe(4-Br)]P[dBip]-OH)	> 100000	41.8	10	–	–
CCCC[C@H](NC(=O)[C@@H]1C[C@@H]2CCCC[C@@H]2N1C(=O)[C@H](C)NC(=O)[C@H](CC1CCNCC1)NC(=O)[C@H](Cc1ccc(Br)cc1)NC(=O)C(C)(C)NC(=O)[C@H](CC(C)C)NC(=O)[C@@H](CCCNC(=N)N)NC(=O)[C@@H]1CCCCN1C(=O)[C@H](CCCCNC(=N)N)NC(=O)[C@H](CCC(N)=O)NC(=O)C(C)(C)C(=O)NCCc1cnc[nH]1)C(=O)N1CCC[C@H]1C(=O)N[C@H](Cc1ccc(-c2ccccc2)cc1)C(=O)O [Example 62] ({Malonyl(2,2-Me2,histaminyl)}-Q[hArg][Pip][dR]L[Aib][Phe(4-Br)][Ala(piperidin-4-yl)]A[Oic][Nle]P[dBip]-OH)	> 10000	–	–	31.7	100
